Where two headings read alike, the source gives them in different places.

These results are taken from paper PMC12002330 (Proceedings of the National Academy of Sciences of the …, 2025).

One assay relates to four serotypes of DENV. As to conditions: cited from earlier work.
A further assay concerns the target WT DENV-2 NS4B (Dengue virus type 2, UniProt P29990). Put plainly: ITC binding of inhibitor to NS4B.
The target of assay [1] is DENV-2 NS4B/NS3 interaction (Dengue virus type 2, UniProt P29990). The assay is classed as binding.
The subject of another assay is DENV-2 NGC strain (WT). In words: microbe, parasite or virus in culture. The assay is classed as cell-based.
Assay [2] addresses NS4B/NS3 interaction (WT NS4B) (Dengue virus type 2, UniProt P14340). The assay is classed as cell-based.
Another assay relates to DENV-2 NGC-Nluc. Put plainly: Antiviral assay using NGC-Nluc in Huh7 cells. The assay is classed as cell-based.
Assay [3] has as its target NS4B peptide 121-171 (cytosolic loop) (Dengue virus type 2, UniProt P29990). The assay is classed as binding. Particulars: aa 121 to 171.
Assay [4] addresses recombinant WT ZIKV NS4B (ZIKV) (UniProt Q32ZE1). In words: ITC.
The target of assay [5] is recombinant DENV-2 NS4B (mature, full-length) with an N-terminal hexahistidine tag (DENV-2) (UniProt P14340). Put plainly: BLI. In general terms: In BLI a coated tip is dipped into the sample, and binding shifts an interference pattern.
Assay [6] shares this target. In words: ITC. (ITC needs no label: the signal is the heat of the interaction.)

Chain of recombinant DENV-2 full-length NS3 (P14340 1476-2093 limits assumed): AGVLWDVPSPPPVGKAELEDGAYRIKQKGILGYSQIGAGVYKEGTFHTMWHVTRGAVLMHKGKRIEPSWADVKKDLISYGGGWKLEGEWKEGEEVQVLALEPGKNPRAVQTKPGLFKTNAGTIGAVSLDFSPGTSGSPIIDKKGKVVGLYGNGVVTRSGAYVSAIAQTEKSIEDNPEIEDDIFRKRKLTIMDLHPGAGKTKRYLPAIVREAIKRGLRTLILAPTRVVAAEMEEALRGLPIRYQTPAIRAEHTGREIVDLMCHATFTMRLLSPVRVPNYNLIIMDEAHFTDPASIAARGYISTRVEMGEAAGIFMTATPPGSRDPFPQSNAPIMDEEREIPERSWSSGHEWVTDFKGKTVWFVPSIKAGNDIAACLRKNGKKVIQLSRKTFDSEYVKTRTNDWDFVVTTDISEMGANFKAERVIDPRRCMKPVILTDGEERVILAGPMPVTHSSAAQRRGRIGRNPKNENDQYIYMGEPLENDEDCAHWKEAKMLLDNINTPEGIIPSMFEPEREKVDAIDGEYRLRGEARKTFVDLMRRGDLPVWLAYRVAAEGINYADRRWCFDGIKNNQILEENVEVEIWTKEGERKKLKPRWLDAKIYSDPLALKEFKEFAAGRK
Chain of recombinant DENV-2 NS4B (mature, full-length) with an N-terminal hexahistidine tag (DENV-2) (P14340 2244-2491 limits assumed): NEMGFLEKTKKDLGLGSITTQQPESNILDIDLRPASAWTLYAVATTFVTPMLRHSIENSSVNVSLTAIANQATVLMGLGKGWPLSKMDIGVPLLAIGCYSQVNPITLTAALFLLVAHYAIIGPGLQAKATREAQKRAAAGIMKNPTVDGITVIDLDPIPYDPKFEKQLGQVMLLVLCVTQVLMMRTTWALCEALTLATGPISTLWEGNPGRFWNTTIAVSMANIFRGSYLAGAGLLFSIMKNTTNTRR
Chain of DENV-2 NS4B/NS3 interaction (P29990 2244-2491): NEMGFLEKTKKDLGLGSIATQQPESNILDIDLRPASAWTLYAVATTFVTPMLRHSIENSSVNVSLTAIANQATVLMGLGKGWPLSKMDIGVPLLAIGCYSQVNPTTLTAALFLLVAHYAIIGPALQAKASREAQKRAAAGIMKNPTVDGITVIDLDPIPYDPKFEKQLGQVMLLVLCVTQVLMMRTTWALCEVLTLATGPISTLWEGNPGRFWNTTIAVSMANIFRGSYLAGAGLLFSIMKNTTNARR
Chain of NS4B/NS3 interaction (WT NS4B) (P14340 2244-2491): as the sequence (P14340 2244-2491 limits assumed) above
Chain of NS4B peptide 121-171 (cytosolic loop) (P29990 2364-2414): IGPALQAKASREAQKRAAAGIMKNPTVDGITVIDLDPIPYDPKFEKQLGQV
Chain of WT DENV-2 NS4B (P29990 2244-2491): as the sequence (P29990 2244-2491) above

Take `COc1cc(N[C@H](C(=O)c2c[nH]c3ccc(OC(F)(F)F)cc23)c2ccc(Cl)cc2OC)cc(S(C)(=O)=O)c1` [JNJ-1802]: the “efficacy against four serotypes of DENV” value in the assay on four serotypes of DENV is recorded as “picomolar to low nanomolar efficacy”. Moreover, on WT DENV-2 NS4B, the “higher binding affinity to NS4B compared to NITD-688” value came out at 4.2 fold. Also, the “more inhibition of NS4B/NS3 interactions than NITD-688” value in assay [1] (ITC assay) is “approximately 4 fold”. In [1] (ITC, JNJ-1802 preincubated with NS4B), the “inhibition of NS4B/NS3 binding” value is listed as “effectively inhibited”. For the same molecule, in the assay with DENV-2 NGC strain (WT), the “higher potency in cellular assays than NITD-688” value is on record as ~ 100 fold. Moreover, the EC50 (commonly the concentration needed to bring the measured effect to its halfway point) was determined as 0.019 nM in the assay on DENV-2 NGC strain (WT) (Dengue virus, DENV2, A549, 48 h, read-out: EC50 (averaged)) and 0.031 nM in the assay with DENV-2 NGC-Nluc (Dengue virus, DENV2, Huh-7, 48 h). In addition, the “decrease of NS3 co-IPed with NS4B” value came to 80% in assay [2] (10 nM JNJ-1802 added at 4 h posttransfection) and 8% in assay [2] (10 nM JNJ-1802 added at 24 h posttransfection). Besides, the “binding to cytosolic loop of NS4B by ITC” value in assay [3] is “not the cytosolic loop”.
Turning to `C#C[C@@]1(O)[C@H](O)[C@@H](CO)O[C@H]1n1ccc2c(N)ncnc21` [NITD-008], a half-maximal effect in the assay on DENV-2 NGC-Nluc (Huh7 cells) (EC50) was put at 380 nM.
“NS3 used in the ITC of ZIKV NS4B/NS3 interactions (enzyme)”: in assay [4], the dissociation constant (Kd) (in general, the concentration at which binding is half-saturated) was 3.4 µM.
As to “recombinant DENV-2 full-length NS3 (from UniProt P14340 1476-2093) (enzyme)”, in assay [5], the Kd came to 13 µM and the fold increase of koff, 200 nM against 3.1 nM NITD-688 worked out at 2.6 fold. In [6], the KD with NITD-688 (molar ratio to NS4B 1:2) is 26.2 µM, the KD with NITD-688 (molar ratio to NS4B 4:1) worked out at 594 µM and the Kd stood at 12.3 µM.
